Source: patent US8785445B2 (Array BioPharma Inc., priority 2008, dated 2014)

target: T1, human DP2 (Homo sapiens, UniProt Q9Y5Y4); assay: DP-2 binding inhibition assay (3H-PGD2, membranes of DP2-expressing K562 cells); conditions: 0.1% BSA, read-out: EC50 (nM) 0.1% BSA
T1 construct: expressed in transfected cells; membranes prepared
T1 sequence (Q9Y5Y4 1-395): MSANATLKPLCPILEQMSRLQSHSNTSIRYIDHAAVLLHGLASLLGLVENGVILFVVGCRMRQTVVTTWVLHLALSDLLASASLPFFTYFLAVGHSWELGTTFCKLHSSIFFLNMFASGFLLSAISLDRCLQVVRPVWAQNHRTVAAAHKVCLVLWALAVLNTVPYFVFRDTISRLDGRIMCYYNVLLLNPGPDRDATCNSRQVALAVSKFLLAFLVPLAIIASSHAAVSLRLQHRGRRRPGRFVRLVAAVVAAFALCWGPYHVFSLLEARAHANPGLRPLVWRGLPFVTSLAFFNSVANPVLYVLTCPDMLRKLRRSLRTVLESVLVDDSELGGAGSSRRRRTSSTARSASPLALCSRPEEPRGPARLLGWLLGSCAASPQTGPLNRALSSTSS
Outline: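 Displacement of 3H-PGD2 was measured by filtration and scintillation counting after 60 min at room temperature, using membranes of DP2-transfected K562 cells in 0.1% BSA, 1% HSA or 4% HSA.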

| Structure (SMILES) | EC50 [nM] |
| --- | --- |
| Cc1cnc(NC(=O)c2ccc(Oc3cc4c(cc3C#N)C(C(=O)O)CCO4)cc2)s1 (stereo not shown) [Example 176, 6-cyano-7-(4-(5-methylthiazol-2-ylcarbamoyl)phenoxy)chroman-4-carboxylic acid] | 62.7 |
| Cc1csc(NC(=O)c2ccc(Oc3cc4c(cc3C#N)C(C(=O)O)CCO4)cc2)n1 (stereo not shown) [Example 177, 6-cyano-7-(4-(4-methylthiazol-2-ylcarbamoyl)phenoxy)chroman-4-carboxylic acid] | 68.2 |
| N#Cc1cc2c(cc1Oc1ccc(C(=O)Nc3ccc4ncoc4c3)cc1)OCCC2C(=O)O (stereo not shown) [Example 188, 7-(4-(benzo[d]oxazol-6-ylcarbamoyl)phenoxy)-6-cyanochroman-4-carboxylic acid] | 301 |
| Cc1nc2ccc(NC(=O)c3ccc(Oc4cc5c(cc4C#N)C(C(=O)O)CCO5)cc3)cc2s1 (stereo not shown) [Example 189, 6-cyano-7-(4-(2-methylbenzo[d]thiazol-6-ylcarbamoyl)phenoxy) chroman-4-carboxylic acid] | 43.3 |
| Cc1nsc2ccc(NC(=O)c3ccc(Oc4cc5c(cc4C#N)C(C(=O)O)CCO5)cc3)cc12 (stereo not shown) [Example 190, 6-cyano-7-(4-(3-methylbenzo[d]isothiazol-5-ylcarbamoyl)phenoxy) chroman-4-carboxylic acid] | 49.3 |

same assay, conditions: 4% HSA, read-out: EC50 (nM) 4% HSA

| Structure (SMILES) | EC50 [nM] |
| --- | --- |
| CC(C)c1csc(NC(=O)c2ccc(Oc3cc4c(cc3Cl)C(C(=O)O)CCO4)cc2)n1 (stereo not shown) [Example 156, 6-chloro-7-(4-(4-isopropylthiazol-2-ylcarbamoyl)phenoxy)chroman-4-carboxylic acid] | 157 |
| CC(C)(C)c1cc(NC(=O)c2ccc(Oc3cc4c(cc3Cl)C(C(=O)O)CCO4)cc2)no1 (stereo not shown) [Example 158, 7-(4-(5-tert-butylisoxazol-3-ylcarbamoyl)phenoxy)-6-chlorochroman-4-carboxylic acid] | 155 |
| CCc1oc(NC(=O)c2ccc(Oc3cc4c(cc3Cl)C(C(=O)O)CCO4)cc2)nc1-c1ccccc1 (stereo not shown) [Example 159, 6-chloro-7-(4-(5-ethyl-4-phenyloxazol-2-ylcarbamoyl)phenoxy)chroman-4-carboxylic acid] | 437 |
| CC(C)c1nsc(NC(=O)c2ccc(Oc3cc4c(cc3Cl)C(C(=O)O)CCO4)cc2)n1 (stereo not shown) [Example 160, 6-chloro-7-(4-(3-isopropyl-1,2,4-thiadiazol-5-ylcarbamoyl)phenoxy)chroman-4-carboxylic acid] | 849 |
| CC(C)(C)c1cc(NC(=O)c2ccc(Oc3cc4c(cc3Cl)C(C(=O)O)CCO4)cc2)on1 (stereo not shown) [Example 162, 7-(4-(3-tert-butylisoxazol-5-ylcarbamoyl)phenoxy)-6-chlorochroman-4-carboxylic acid] | 1600 |
| O=C(Nc1nc(-c2ccccc2)ns1)c1ccc(Oc2cc3c(cc2Cl)C(C(=O)O)CCO3)cc1 (stereo not shown) [Example 163, 6-chloro-7-(4-(3-phenyl-1,2,4-thiadiazol-5-ylcarbamoyl)phenoxy)chroman-4-carboxylic acid] | 564 |
| O=C(Nc1cnn(-c2cccc(Cl)c2)c1)c1ccc(Oc2cc3c(cc2Cl)C(C(=O)O)CCO3)cc1 (stereo not shown) [Example 164, Sodium 6-chloro-7-(4-(1-(3-chlorophenyl)-1H-pyrazol-4-ylcarbamoyl)phenoxy)chroman-4-carboxylate] | 143 |
| O=C(Nc1cnn(-c2cccc(Cl)c2)c1)c1ccc(Oc2c(Cl)cc3c(c2Cl)OCCC3C(=O)O)cc1 (stereo not shown) [Example 165, Sodium 6,8-dichloro-7-(4-(1-(3-chlorophenyl)-1H-pyrazol-4-ylcarbamoyl)phenoxy)chroman-4-carboxylate] | 187 |
| COc1ccc(-n2ccc(NC(=O)c3ccc(Oc4cc5c(cc4Cl)C(C(=O)O)CCO5)cc3)n2)cc1 (stereo not shown) [Example 170, 6-chloro-7-(4-(1-(4-methoxyphenyl)-1H-pyrazol-3-ylcarbamoyl)phenoxy)chroman-4-carboxylic acid] | 292 |
| Cn1nc(C(C)(C)C)cc1NC(=O)c1ccc(Oc2cc3c(cc2Cl)C(C(=O)O)CCO3)cc1 (stereo not shown) [Example 178, 7-(4-(3-tert-butyl-1-methyl-1H-pyrazol-5-ylcarbamoyl)phenoxy)-6-chlorochroman-4-carboxylic acid] | 951 |
| O=C(Nc1ccn(Cc2ccc(Cl)cc2)n1)c1ccc(Oc2cc3c(cc2Cl)C(C(=O)O)CCO3)cc1 (stereo not shown) [Example 179, 6-chloro-7-(4-(1-(4-chlorobenzyl)-1H-pyrazol-3-ylcarbamoyl)phenoxy)chroman-4-carboxylic acid] | 247 |
| O=C(Nc1cc(-c2ccc(Cl)cc2)n[nH]1)c1ccc(Oc2cc3c(cc2Cl)C(C(=O)O)CCO3)cc1 (stereo not shown) [Example 180, 6-Chloro-7-(4-(3-(4-chlorophenyl)-1H-pyrazol-5-ylcarbamoyl)phenoxy)chroman-4-carboxylic acid] | 406 |
| O=C(Nc1cc(-c2ccc(F)cc2)n[nH]1)c1ccc(Oc2cc3c(cc2Cl)C(C(=O)O)CCO3)cc1 (stereo not shown) [Example 181, 6-Chloro-7-(4-(3-(4-fluorophenyl)-1H-pyrazol-5-ylcarbamoyl)phenoxy)chroman-4-carboxylic acid] | 313 |

The next lines start with the values.

| EC50 [nM] | Structure (SMILES) |
| --- | --- |
| 68.9 | O=C(Nc1nc(-c2ccc(F)cc2F)cs1)c1ccc(Oc2cc3c(cc2Cl)C(C(=O)O)CCO3)cc1 (stereo not shown) [Example 155, 6-chloro-7-(4-(4-(2,4-difluorophenyl)thiazol-2-ylcarbamoyl)phenoxy)chroman-4-carboxylic acid] |
| 16.6 | O=C(Nc1nc(-c2cccc(Cl)c2)cs1)c1ccc(Oc2cc3c(cc2Cl)C(C(=O)O)CCO3)cc1 (stereo not shown) [Example 157, 6-chloro-7-(4-(4-(3-chlorophenyl)thiazol-2-ylcarbamoyl)phenoxy)chroman-4-carboxylic acid] |
| 74.6 | O=C(Nc1cc(-c2ccc(Cl)cc2)no1)c1ccc(Oc2cc3c(cc2Cl)C(C(=O)O)CCO3)cc1 (stereo not shown) [Example 161, 6-chloro-7-(4-(3-(4-chlorophenyl)isoxazol-5-ylcarbamoyl)phenoxy)chroman-4-carboxylic acid] |
| 85.1 | O=C(Nc1ccn(-c2ccc(F)c(F)c2)n1)c1ccc(Oc2cc3c(cc2Cl)C(C(=O)O)CCO3)cc1 (stereo not shown) [Example 166, 6-chloro-7-(4-(1-(3,4-difluorophenyl)-1H-pyrazol-3-ylcarbamoyl)phenoxy)chroman-4-carboxylic acid] |
| 46.8 | O=C(Nc1ccn(-c2ccc(F)c(Cl)c2)n1)c1ccc(Oc2cc3c(cc2Cl)C(C(=O)O)CCO3)cc1 (stereo not shown) [Example 167, 6-chloro-7-(4-(1-(3-chloro-4-fluorophenyl)-1H-pyrazol-3-ylcarbamoyl)phenoxy)chroman-4-carboxylic acid] |
| 112 | O=C(Nc1ccn(-c2ccc(F)cc2F)n1)c1ccc(Oc2cc3c(cc2Cl)C(C(=O)O)CCO3)cc1 (stereo not shown) [Example 168, 6-chloro-7-(4-(1-(2,4-difluorophenyl)-1H-pyrazol-3-ylcarbamoyl)phenoxy)chroman-4-carboxylic acid] |
| 76 | O=C(Nc1ccn(-c2cccc(Cl)c2F)n1)c1ccc(Oc2cc3c(cc2Cl)C(C(=O)O)CCO3)cc1 (stereo not shown) [Example 169, 6-chloro-7-(4-(1-(3-chloro-2-fluorophenyl)-1H-pyrazol-3-ylcarbamoyl)phenoxy)chroman-4-carboxylic acid] |
| 97.5 | O=C(Nc1ccn(-c2ccccc2)n1)c1ccc(Oc2cc3c(cc2Cl)C(C(=O)O)CCO3)cc1 (stereo not shown) [Example 171] |
| 55 | O=C(Nc1ccn(-c2cccc(Cl)c2)n1)c1ccc(Oc2cc3c(cc2Cl)C(C(=O)O)CCO3)cc1 (stereo not shown) [Example 172, 6-chloro-7-(4-(1-(3-chlorophenyl)-1H-pyrazol-3-ylcarbamoyl)phenoxy)chroman-4-carboxylic acid] |
| 22.9 | O=C(Nc1ccn(-c2ccc(Cl)c(Cl)c2)n1)c1ccc(Oc2cc3c(cc2Cl)C(C(=O)O)CCO3)cc1 (stereo not shown) [Example 173, 6-chloro-7-(4-(1-(3,4-dichlorophenyl)-1H-pyrazol-3-ylcarbamoyl)phenoxy)chroman-4-carboxylic acid] |
| 47.1 | O=C(Nc1ccn(-c2ccccc2Cl)n1)c1ccc(Oc2cc3c(cc2Cl)C(C(=O)O)CCO3)cc1 (stereo not shown) [Example 174, 6-chloro-7-(4-(1-(2-chlorophenyl)-1H-pyrazol-3-ylcarbamoyl)phenoxy)chroman-4-carboxylic acid] |
| 80.7 | O=C(Nc1ccn(-c2ccc(Cl)cc2)n1)c1ccc(Oc2cc3c(cc2Cl)C(C(=O)O)CCO3)cc1 (stereo not shown) [Example 175, 6-chloro-7-(4-(1-(4-chlorophenyl)-1H-pyrazol-3-ylcarbamoyl)phenoxy)chroman-4-carboxylic acid] |
| 45.8 | O=C(Nc1nc2ccc(C(F)(F)F)cc2s1)c1ccc(Oc2cc3c(cc2Cl)C(C(=O)O)CCO3)cc1 (stereo not shown) [Example 183, 6-Chloro-7-(4-(6-(trifluoromethyl)benzo[d]thiazol-2-ylcarbamoyl)phenoxy)chroman-4-carboxylic acid] |
| 42.1 | COc1nc(C2CC2)ccc1CCNC(=O)c1ccc(Oc2cc3c(cc2Cl)C(C(=O)O)CCO3)cc1 (stereo not shown) [Example 184, Sodium 6-Chloro-7-(4-(2-(6-cyclopropyl-2-methoxypyridin-3-yl)ethylcarbamoyl)phenoxy)chroman-4-carboxylate] |
| 32.6 | O=C(NCCc1ccc(C(F)(F)F)nc1C1CC1)c1ccc(Oc2cc3c(cc2Cl)C(C(=O)O)CCO3)cc1 (stereo not shown) [Example 186, Sodium 6-Chloro-7-(4-(2-(2-cyclopropyl-6-(trifluoromethyl)pyridin-3-yl)ethylcarbamoyl)phenoxy)chroman-4-carboxylate] |
| 45.2 | CN(C)c1nc(C2CC2)ccc1CCNC(=O)c1ccc(Oc2cc3c(cc2Cl)C(C(=O)O)CCO3)cc1 (stereo not shown) [Example 187, 6-Chloro-7-(4-(2-(6-cyclopropyl-2-(dimethylamino)pyridin-3-yl)ethylcarbamoyl)phenoxy)chroman-4-carboxylic acid] |
